Test results: US20170131285A1, “METHODS AND COMPOSITIONS FOR DIAGNOSING, MONITORING AND TREATING CANCER” (INSERM (Institut National de la Sante et de la Recherche …, priority 2014, published 2017)
Where no end group is shown, it is not given here.

Assays:
[1] = system: B16F10 tumors; test: B16F10 melanoma tumor model in C57/BL6 mice; format: in vivo, mouse
Description: FIG. 5: A8 anti-tumor effect in mice is associated to MDSC and an immune anti-tumor response. (A) Mice were sc injected with B16F10 cells (5×10^4). On day 4, when tumor size was about 0.9 mm^3, animals were treated every two days until the end of the experiment with A0 or A8 (3 mg/kg dissolved in PBS, i.p injection). On day 5, half the animals were treated with cisplatin as a single dose (CDDP, i.p injection, 5 mg/kg). At day 18, the percentage of Gr1^+ CD11b^+ cells in the spleen collected from the different groups of mice was analyzed by flow cytometry (6 animals per group). As a MDCS negative control (Ctl) we used animals with no tumor cells injected. Right panels, a representative immunoblot of pSTAT3 in the MDSC (Gr1^+ CD11b^+ cells) isolated from the spleen of control animals (A0/PBS) or A8 and CDDP-treated animals (A8/CDDP). 14-3-3 is used as a loading control. (B) Analysis of tumor growth in the animals described above. Tumor size was measured every two days (6 animals per group). The white symbols represent the tumors from animals treated with cisplatin. (C) HSP70-exosomes isolated from B16F10 cells treated or not with cisplatin (CDDP, 25 μM) were determined by flow cytometry. Data represent the percentage of MFI+/−SD (n=3); *, p<0.05. (D) Association curves of HSP70-exosomes present in tumor-bearing mice sera treated or not with cisplatin (5 mg/kg). For the biolayer interferometry, biotinylated A8 was immobilized on streptavidin sensor tips. Curves represent mean values of triplicate measurements for each concentration (for each curve, the blood of 5 mice per group was pooled).
Exponentially growing B16F10 were harvested and resuspended in an RPMI medium without FBS. In vivo studies were performed in wild-type C57/BL6 mice (Charles River). B16F10 cells (5·10^4) were injected s.c. into the right flank Tumor volumes were evaluated every 2 days. Mice were treated with a control peptide aptamer A0 (3 mg/kg) or the HSP70 aptamer A8 (3 mg/kg) and half mice were treated with cisplatin (CDDP, […]). The animals were treated according to the guidelines of the Ministère de la Recherche et de la Technologie, France. All experiments were approved by the Comité d'Ethique de l'Université de Bourgogne.
MDSC cell isolation and analysis: Single-cell suspensions were prepared from spleens, and red cells were removed using ammonium chloride lysis buffer. Gr-1+ cells were isolated from spleens of different group of tumor-bearing mice or naive mice by labeling the cells with PE Cy7 Ab to Gr-1, then using magnetic PE Cy7 beads and LS MACS columns (Miltenyi Biotec). For extracellular staining of immune markers, single-cell suspensions were prepared. We incubated 1·10^6 freshly prepared cells with fluorochrome-coupled CD11b antibody (eBioscience). All events were acquired by a BD Bioscience LSR-II device and analyzed with FlowJo (Tree Star).
Animals were killed 18 days after cell injection. The site of tumor cell injection was resected and snap-frozen in liquid nitrogen. An immunohistochemical study of tumor-infiltrating inflammatory cells was performed on acetone-fixed 5 μm cryostat sections.
Next, we tested whether A8 was also able to block the immunosuppressive effect of MDSC in an in vivo cancer model. We performed subcutaneous injection at day 0 of B16F10 cells or media as a control in C57/BL6 mice. When tumor size reached about 0.9 mm^3 ([…]), mice were treated i.p. with a control peptide aptamer (A0) or A8 every two days until the end of the experiment. When indicated, half of the animals received cisplatin (CDDP, […], i.p.) as a single dose. Tumor growth was measured every two days. After 18 days, we analyzed the percentage of MDSC present in mice spleen (6 animals per group) by FACS using the specific markers Gr1^+ and CD11b^+ (FIG. 5A). […]

[2] = system: membrane HSP70 on tumor-derived exosomes (B16F10, HCT116); test: BLI binding of tumor-derived exosomes to immobilized biotinylated A8, with or without cmHSP70
Description: FIG. 1: Tumor-derived exosomes in cancer patient′ samples express HSP70. (A) The binding of exosomes (10^6), derived from the B16F10, HCT116 cell lines, with or without previous incubation with cmHSP70, to immobilized biotinylated A8 was determined by biolayer interferometry. (B) Association curves of HSP70-exosomes in patients' urines (1 breast, 1 pulmonary) or healthy individuals (controls) with biotinylated A8 immobilized on streptavidin sensor tips. Curves represent mean values of triplicate measurements for each concentration. (C) Exosomes expressing HSP70 were determined by FACS in urine samples from healthy individuals (n=5) and cancer metastatic cancer patients (5 breast, 4 pulmonary). The bar graph presents the means and standard deviations of the vesicle concentrations. (D) Nanoparticle Tracking Analysis (NTA) to quantify total number of exosomes in urine human samples (urines) described above. Samples were diluted in PBS and analyzed using a NanoSight LM10 instrument. Inset values represent the total number of exosomes counted 10̂^9/ml.
Protein-protein interaction experiments were conducted at 25° C. in PBS with an Octet Red instrument (Forte Bio, Menlo Park, Calif., USA) by biolayer interferometry (BLI). […] Each KD was determined with a 1:1 stoichiometry model using a global fit with Rmax unlinked by sensor (Forte Bio, Data analysis software version 7.1.0.89). […]

[3] = Toxicity observed in treated animals; format: in vivo; conditions: applicant's studies and bio-distribution studies
[4] = after systemic administration; cited from earlier work

Sequence: SPWPRPTY [Aptamer A8, SPWPRPTY]
- intra-tumor infiltration of immune cells (CD3+, CD11c+, CD11b+, F4/80+) ([1]; B16F10 model): intra-tumor infiltration of immune cells
- anti-cancer properties of cisplatin ([1]; B16F10 model, A8 added to cisplatin): strong increase
- percentage of MDSC (Gr1+ CD11b+) in spleen ([1]; B16F10 tumor-bearing C57/BL6 mice, day 18, A0 or A8 3 mg/kg i.p. every two days, cisplatin single i.p. dose, 6 animals per group): 6+/−0.7%
- activity of spleen MDSC measured by phosphorylated STAT3 ([1]; after cisplatin treatment, immunoblot of Gr1+ CD11b+ cells): affected their activity
- tumor growth / tumor progression ([1]; tumor-bearing mice): inhibits tumor progression
- ability of cmHSP70 to bind to HSP70 (competition) [2]: in a dose dependent manner, decreased the ability of cmHSP70 to bind to HSP70
- capture of exosomes through interaction with membrane-HSP70 ([2]; immobilized biotinylated A8, exosomes (10^6)): efficiently captured exosomes
- toxicity in the animals, notably cardiac or hepatic [3]: neither our studies nor those done for the bio-distribution of A8 indicate any evident toxicity
- biodistribution (localization of the peptide) [4]: localizes mainly in the tumor area
